Reference: patent publication US10072006B2 (MUTABILIS, priority 2015, dated 2018)

What was measured:
[1] = tested on: K. oxytoca UFR21 (TEM-1, CTX-M-15, OXA-48); assay: microbe, parasite or virus in culture; format: cell-based; conditions: for MIC: Klebsiella oxytoca, 18 h, read-out: MIC compounds of the invention alone
CTX-M-15 = biological target: T1, CTX-M-15 (Escherichia coli, UniProt Q9EXV5); assay: β-lactamase inhibitory activity, determination of IC50 (nitrocefin hydrolysis); format: biochemical
T1 construct: made in house; host or cells: E. coli

OXA-11 = biological target: T2, OXA-11 (Pseudomonas aeruginosa, UniProt Q06778); assay: as above; format: biochemical
T2 construct: made in house; host or cells: E. coli

[2] = tested on: K. pneumoniae 160143 (TEM-1, SHV-1, CTX-M-15, KPC-2, OXA-1); assay: microbe, parasite or virus in culture; format: cell-based; conditions: for MIC: Klebsiella pneumoniae, 18 h, read-out: MIC compounds of the invention alone
Experimental: (§1) Briefly, compounds alone according to the invention were prepared in DMSO and spotted (2 μL each) on sterile polystyrene plates (Corning, 3788). […] Microplates were incubated for 16-20 h at 35° C. in ambient air. The MIC of the compounds was defined as the lowest concentration of said compounds that prevented bacterial growth as read by visual inspection.

[3] = tested on: E. coli 190317 (TEM-1, SHV-12, CTX-M-15, OXA-1); assay: microbe, parasite or virus in culture; format: cell-based; conditions: for MIC: Escherichia coli, 18 h, read-out: MIC compounds of the invention alone; for MIC, combination of CAZ and compounds of the invention: MIC of ceftazidime with compound fixed at 4 μg/mL, strain 190317 (E. coli)
Experimental: as §1

[4] = tested on: E. cloacae 260508 (TEM-1, CTX-M-15); assay: microbe, parasite or virus in culture; format: cell-based; conditions: for MIC: Enterobacter cloacae, read-out: MIC compounds of the invention alone; for MIC, combination of CAZ and compounds of the invention: MIC of ceftazidime with compound fixed at 4 μg/mL, strain 260508 (E. cloacae)
Experimental: as §1

TEM-1 = biological target: T3, TEM-1 (Escherichia coli, UniProt P62593); assay: β-lactamase inhibitory activity, determination of IC50 (nitrocefin hydrolysis); format: biochemical; conditions: class (A), 30 min pre-incubation
T3 construct: made in house; host or cells: E. coli

[5] = tested on: K. pneumoniae 200047 (TEM-1, SHV-32, CTX-M-15, OXA-1); assay: microbe, parasite or virus in culture; format: cell-based; conditions: for MIC: Klebsiella pneumoniae, 18 h, read-out: MIC compounds of the invention alone
[6] = tested on: E. coli UFR74 (SHV-1, DHA-1); assay: MIC of compounds and synergy with ceftazidime (broth microdilution); format: cell-based; conditions: strain UFR74 (E. coli); for MIC: Escherichia coli, 18 h, read-out: MIC compounds of the invention alone; for MIC, combination of CAZ and compounds of the invention: MIC of ceftazidime with compound fixed at 4 μg/mL
Procedure, shortened: (§2)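 Compounds alone were dissolved in DMSO and spotted onto plates. After inoculation, plates were incubated 16-20 h at 35° C in ambient air. MIC was taken as the lowest compound concentration preventing bacterial growth by visual inspection.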

[7] = tested on: E. coli UFR18 (CTX-M-15, OXA-204); assay: as above; format: cell-based; conditions: strain UFR18 (E. coli); for MIC: Escherichia coli, 18 h, read-out: MIC compounds of the invention alone; for MIC, combination of CAZ and compounds of the invention: MIC of ceftazidime with compound fixed at 4 μg/mL
Procedure, shortened: as §2

[8] = tested on: P. aeruginosa UFR90 (Derepressed ampC, OprD-); assay: as above; format: cell-based
Procedure, shortened: as §2

[9] = tested on: K. pneumoniae UFR24 (TEM-1, SHV-2, SHV-11, OXA-1, OXA-48, OXA-47); assay: as above; format: cell-based; conditions: strain UFR24 (K. pneumoniae); for MIC: Klebsiella pneumoniae, 18 h, read-out: MIC compounds of the invention alone; for MIC, combination of CAZ and compounds of the invention: MIC of ceftazidime with compound fixed at 4 μg/mL
Procedure, shortened: as §2

[10] = tested on: E. coli 131119 (TEM-1, OXA-48); assay: as above; format: cell-based; conditions: strain 131119 (E. coli); for MIC: Escherichia coli, 18 h, read-out: MIC compounds of the invention alone; for MIC, combination of CAZ and compounds of the invention: MIC of ceftazidime with compound fixed at 4 μg/mL
Procedure, shortened: as §2

[11] = tested on: P. aeruginosa UFR47 (VIM-1); assay: as above; format: cell-based; conditions: strain UFR47 (P. aeruginosa); for MIC: Pseudomonas aeruginosa, 18 h, read-out: MIC compounds of the invention alone
Procedure, shortened: (§3)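 MICs were scored by eye after 16-20 h at 35° C (ambient air), using compounds spotted from DMSO.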

[12] = tested on: P. aeruginosa UFR92 (Derepressed ampC, OprD-); assay: as above; format: cell-based; conditions: MIC of ceftazidime with compound fixed at 4 μg/mL; strain UFR92 (P. aeruginosa)
Procedure, shortened: as §3

SHV-1 = biological target: T4, SHV-1 (Klebsiella pneumoniae, UniProt P0AD64); assay: β-lactamase inhibitory activity, determination of IC50 (nitrocefin hydrolysis); format: biochemical
T4 construct: made in house; host or cells: E. coli
T4 sequence (P0AD64 22-286): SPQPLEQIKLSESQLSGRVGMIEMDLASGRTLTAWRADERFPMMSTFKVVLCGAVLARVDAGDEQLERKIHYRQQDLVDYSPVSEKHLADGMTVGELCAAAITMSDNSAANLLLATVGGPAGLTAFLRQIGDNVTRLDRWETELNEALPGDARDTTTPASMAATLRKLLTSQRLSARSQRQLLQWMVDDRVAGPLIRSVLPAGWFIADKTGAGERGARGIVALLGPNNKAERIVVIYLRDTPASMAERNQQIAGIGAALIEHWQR

T1 sequence (Q9EXV5 entry or part of it): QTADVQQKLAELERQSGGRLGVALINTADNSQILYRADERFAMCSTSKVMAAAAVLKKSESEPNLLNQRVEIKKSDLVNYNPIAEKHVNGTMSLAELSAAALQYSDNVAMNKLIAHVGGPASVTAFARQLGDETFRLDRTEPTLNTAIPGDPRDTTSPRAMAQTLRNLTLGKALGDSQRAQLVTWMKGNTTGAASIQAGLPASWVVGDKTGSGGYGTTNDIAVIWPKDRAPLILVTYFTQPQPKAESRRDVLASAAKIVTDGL
T3 sequence (P62593 24-286 limits assumed): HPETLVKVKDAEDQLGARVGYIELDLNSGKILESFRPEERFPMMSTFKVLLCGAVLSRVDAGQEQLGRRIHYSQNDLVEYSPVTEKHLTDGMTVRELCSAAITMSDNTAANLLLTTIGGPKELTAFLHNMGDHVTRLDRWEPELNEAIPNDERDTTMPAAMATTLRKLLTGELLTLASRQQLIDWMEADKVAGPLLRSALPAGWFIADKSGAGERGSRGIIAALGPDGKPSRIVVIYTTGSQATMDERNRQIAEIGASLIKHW
T2 sequence (Q06778 21-266): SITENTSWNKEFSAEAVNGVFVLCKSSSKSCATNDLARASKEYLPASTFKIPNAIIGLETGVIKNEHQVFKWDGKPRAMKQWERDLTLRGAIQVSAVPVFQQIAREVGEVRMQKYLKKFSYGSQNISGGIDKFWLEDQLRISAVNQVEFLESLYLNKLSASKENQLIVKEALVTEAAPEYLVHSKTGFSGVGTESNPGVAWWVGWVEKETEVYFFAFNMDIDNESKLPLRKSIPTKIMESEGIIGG

| SMILES | MIC [1] [µg/mL] | IC50 (CTX-M-15) [nM] | IC50 (OXA-11) [nM] | MIC [2] [µg/mL] | MIC [3] [µg/mL] | MIC, combination of CAZ and compounds of the invention [3] [µg/mL] | MIC [4] [µg/mL] | MIC, combination of CAZ and compounds of the invention [4] [µg/mL] | IC50 (TEM-1) [nM] | MIC [5] [µg/mL] | MIC [6] [µg/mL] | MIC, combination of CAZ and compounds of the invention [6] [µg/mL] | MIC [7] [µg/mL] | MIC, combination of CAZ and compounds of the invention [7] [µg/mL] | MIC [9] [µg/mL] | MIC, combination of CAZ and compounds of the invention [9] [µg/mL] | MIC [10] [µg/mL] | MIC, combination of CAZ and compounds of the invention [10] [µg/mL] | MIC [11] [µg/mL] | IC50 (SHV-1) [nM] | also measured |
| --- | --- | --- | --- | --- | --- | --- | --- | --- | --- | --- | --- | --- | --- | --- | --- | --- | --- | --- | --- | --- | --- |
| NC[C@@H]1C(c2nccs2)=C[C@@H]2CN1C(=O)N2OS(=O)(=O)[O-].O=C(O)C(F)(F)F.[Na+] [Example 2, Sodium and 2,2,2-trifluoroacetate [(2S,5R)-2-(azaniumylmethyl)-7-oxo-3-thiazol-2-yl-1,6-diazabicyclo[3.2.1]oct-3-en-6-yl] sulfate] | 16 | 0.76 | 6.8 | 8 | ≤ 0.016 | <0.25 | ≤ 0.016 | <0.25 | 1.7 | 16 | 16 | ≤0.125 | ≤ 0.016 | <0.25 | > 32 | 0.25 | ≤ 0.016 | <0.25 | 2 | 0.74 | MIC, combination of CAZ and compounds of the invention ([8]; MIC of ceftazidime with compound fixed at 4 μg/mL, strain UFR90 (P. aeruginosa)): <0.25 µg/mL; MIC ([8]; Pseudomonas aeruginosa, 18 h, read-out: MIC compounds of the invention alone): 1 µg/mL; MIC, combination of CAZ and compounds of the invention ([11]; MIC of ceftazidime with compound fixed at 4 μg/mL): <0.25 µg/mL; MIC, combination of CAZ and compounds of the invention [12]: <0.25 µg/mL |
| NC[C@@H]1C(c2ncco2)=C[C@@H]2CN1C(=O)N2OS(=O)(=O)[O-].O=C(O)C(F)(F)F.[Na+] [Example 5, Sodium and 2,2,2-trifluoroacetate [(2S,5R)-2-(azaniumylmethyl)-7-oxo-3-oxazol-2-yl-1,6-diazabicyclo[3.2.1]oct-3-en-6-yl] sulfate] | 32 | 130 | 430 | 32 | ≤ 0.016 | <0.25 | 8 | <0.25 | 110 | 16 | 16 | <0.25 | ≤ 0.016 | <0.25 | > 32 | <0.25 | 0.063 | <0.25 | 1 | 64 | MIC, combination of CAZ and compounds of the invention ([1]; MIC of ceftazidime with compound fixed at 4 μg/mL, strain UFR21 (K. oxytoca)): <0.25 µg/mL; MIC, combination of CAZ and compounds of the invention ([2]; MIC of ceftazidime with compound fixed at 4 μg/mL, strain 160143 (K. pneumoniae)): <0.25 µg/mL; MIC, combination of CAZ and compounds of the invention ([5]; MIC of ceftazidime with compound fixed at 4 μg/mL, strain 200047 (K. pneumoniae)): <0.25 µg/mL |
